In patent US5922731A, “5-[(heteroaryl)alkyl]-3-oxo-pyrido[1,2-a]benzimidazole-4-carboxamide derivatives useful in treating central nervous system disorders” (Ortho Pharmaceutical Corporation, priority 1997, dated 1999):

Experiments:
[1] = system: metrazol-induced convulsions; assay: Suppression of Metrazol-Induced Convulsions in Adult Male Mice; type: in vivo, mouse (male CD1); settings: 0.5 h; mouse, ip; block of clonic convulsions, CD90 dose of metrazol sc, 30 min observation
Description: Compounds of the invention were tested for their ability to reduce metrazol-induced convulsions in mice (Swinyard, E. A. J. Am. Pharm Assoc. 1949, 38, 201). Male CD1 mice, were fasted at least 16 hours, were divided into equal groups and test compounds or vehicle were administered parenterally. Water was not withheld except during the period of observations. At the time of suspected peak activity, anti-pentylenetetrazol (anti-metrazol) activity was evaluated by the subcutaneous administration of the CD90 dose of metrazol (the dose of metrazol was determined from the dose-response curve producing clonic convulsions in 90% of animals that received the corresponding vehicle for this experiment). Metrazol was dissolved in 0.9% sodium chloride solution, and its dose volume was 10 mL/kg. Animals were housed individually for observation of clonic convulsions, tonic convulsions and death for a period of 30 min. Test compounds that blocked the clonic seizure component of the convulsion in at least 50% of the animals were considered active. The biological assay was considered to be valid if the effects of a known anticonvulsant (positive control) were detected, within the same experiment. Activity was reported as percent reduction of clonic convulsions from the vehicle group. The ED50 values of active compounds were calculated by the method of probits (Finney, D. J. 1971. Probit Analysis. London: Cambridge University Press) and are listed in Table 1. […] Compounds active in this screen are considered active anticonvulsion/antiepileptic agents.

[2] = target: benzodiazepine site of the GABA-A receptor; assay: Benzodiazepine Receptor Binding Assay (inhibition of 3H-flunitrazepam binding); settings: 3H-flunitrazepam ca. 3 nM; 10-20 min at 25° C.
Description: Selected compounds, which were prepared according to the experimental details given in the following examples, were tested for binding to the benzodiazepine site of the GABA-A receptor (Williams, M. et al., J. Pharm. Exper. Therap. 1988, 248, 89). The ability of the compounds of the invention to inhibit the binding of flunitrazepam to prepared receptors was assessed. For each sample, membranes from ca. 10 mg of tissue were incubated in a K2 HPO4 -buffered incubation medium (final concentration=2.0 mL). The concentration of ligand (^3 H-flunitrazepam) was ca. 3 nM. Samples were incubated 10-20 min at 25° C., after which the membrane material and bound ligand was collected on glass fiber filter sheets using vacuum filtration. The collected material was washed with 10 mM HEPES buffered solution, and the radioactivity associated with each sample was measured by liquid scintillation spectrometry. The binding of the test drug to the receptor was determined by comparing the amount of radiolabeled ligand bound in control samples to the amount of ligand bound in the presence of the drug. Concentration-response data were analyzed in a variety of ways. The IC50 was usually calculated by transforming the data to a log-logit format, then performing a linear regression analysis. This procedure provides a Hill coefficient as well as the IC50 value. An IC50 value of over 10,000 for a particular compound would indicate that the compound was not active in this screen. This is a general screen and compounds active here are have potential utility for the treatment of one or more disorders of the central nervous system.

[3] = system: behavior suppressed by punishment (Rat Conflict); assay: Suppression of Anxiety in the Adult Male Rat (conflict test); type: in vivo; settings: ip, minimum effective dose, p<0.05 1-tailed vs vehicle, 3-min test session, read-out: Rat Conflict MED
Description: The anxiolytic activity of selected compounds of the invention was assessed by determining their ability to release (disinhibit) behavior that had been suppressed by punishment (Vogel, J. R. et al. Psychopharmacology 1971, 21, 1). Male rats were deprived of water for 48 hrs and were deprived of food for 24 hrs prior to testing. After the first 24 hours of water deprivation, they were placed in the conflict chamber for a training period; wherein, they were allowed 200 unpunished licks from a bottle containing tap water. The experiment was run the next day. At the expected time of peak activity, the animals were placed in the chamber and allowed access to tap water. […] Their first lick initiates a 3-min test session. Subsequently,every 20th lick was punished by a 0.2-s shock delivered via the stainless-steel drinking-tube. Vehicle-treated control animals generally were willing to accept a median number of 3 to 8 shocks per test session. […] The Wilcoxon rank-sum test (Mann-WhitneyU-test) was used to test for an increase (p<0.05, 1-tailed) in the median number of shocks in drug-treated groups, compared to a concurrently run vehicle-treated group. The biological assay is considered to be valid if the effects of a known anxiolytic (positive control) are detected, within the same experiment. A compound was considered active if there is a significant difference in the median number of shocks tolerated between the drug-treated group and the control group. The MED was defined as the minimum dose of the drug-treatment as analyzed using the Wilcoxon rank-sum test (SAS; Statistical Analysis System, version 5.16). If the MED value is greater than 10, an active dose of the compound being tested had not been determined.

Compound	IC50 [2] [nM]	ED50 [1] [mg/kg]	minimal effective dose [3] [mg/kg]
O=C1CCN2C(=C1C(=O)Nc1c(F)cccc1F)N(Cc1ccccn1)c1cc(F)ccc12 [CP# 24]	24.4	3	10
O=C1CCN2C(=C1C(=O)Nc1c(F)cccc1F)N(Cc1ccccn1)c1ccccc12 [CP# 29]	23.9	3	> 10
O=C1CCN2C(=C1C(=O)Nc1ccccc1F)N(Cc1ccc[n+]([O-])c1)c1cc(F)ccc12 [CP# 13]	5.19	3	> 10
O=C1CCN2C(=C1C(=O)Nc1ccccc1F)N(Cc1ccccn1)c1ccccc12 [CP# 28, 1,2-Dihydro-5-(2-pyridylmethyl)-3-oxo-N-(2-fluorophenyl)pyrido[1,2-a]-benzimidazole-4-carboxamide]	3.77	0.5	< 10
O=C1CCN2C(=C1C(=O)Nc1c(F)cccc1F)N(Cc1ccco1)c1cc(F)ccc12 [CP# 27]	1.26	1	> 10
O=C1CCN2C(=C1C(=O)Nc1c(F)cccc1F)N(Cc1ccsc1)c1cc(F)ccc12 [CP# 23]	4.24	> 10	> 10
O=C1CCN2C(=C1C(=O)Nc1c(F)cccc1F)N(CCc1ccsc1)c1cc(F)ccc12 [CP# 25]	0.22	3	< 10
O=C1CCN2C(=C1C(=O)Nc1ccccc1F)N(CCc1ccccn1)c1cc(F)ccc12 [CP# 15]	0.89	0.3	10
O=C1CCN2C(=C1C(=O)Nc1ccccc1F)N(Cc1cccnc1)c1ccccc12 [CP# 30]	4.54	10	10
O=C1CCN2C(=C1C(=O)Nc1ccccc1F)N(Cc1ccncc1)c1cc(F)ccc12 [CP# 16]	3.01	3	> 10
O=C1CCN2C(=C1C(=O)Nc1ccccc1F)N(Cc1cc[n+]([O-])cc1)c1cc(F)ccc12 [CP# 14]	13.4	10	> 10

The remaining molecules from weak to strong by IC50 [2], led by results:

IC50 [2] [nM]	Compound	ED50 [1] [mg/kg]	minimal effective dose [3] [mg/kg]
2.98	O=C1CCN2C(=C1C(=O)Nc1c(F)cccc1F)N(Cc1cccs1)c1cc(F)ccc12 [CP# 26]	< 10	> 10
2.79	O=C1CCN2C(=C1C(=O)Nc1ccccc1F)N(Cc1ccccn1)c1cc(F)ccc12 [CP# 22]	< 1	< 10
1.27	O=C1CCN2C(=C1C(=O)Nc1ccccc1F)N(Cc1cccnc1)c1cc(F)ccc12 [CP# 17, 7-Fluoro-1,2-dihydro-5-(3-pyridylmethyl)-3-oxo-N-(2-fluorophenyl)pyrido[1,2-a]benzimidazole-4-carboxamide]	1	> 10
0.71	O=C1CCN2C(=C1C(=O)Nc1ccccc1F)N(Cc1ccsc1)c1cc(F)ccc12 [CP# 19, 7-Fluoro-1,2-dihydro-5-[(3-thienyl)methyl]-3-oxo-N-(2-fluorophenyl)pyrido-[1,2-a]benzimidazole-4-carboxamide]	0.7	< 10
0.61	O=C1CCN2C(=C1C(=O)Nc1c(F)cccc1F)N(CCc1cccs1)c1cc(F)ccc12 [CP# 18]	10	> 10
0.59	O=C1CCN2C(=C1C(=O)Nc1ccccc1F)N(Cc1ccco1)c1cc(F)ccc12 [CP# 11]	< 10	> 10
0.3	O=C1CCN2C(=C1C(=O)Nc1ccccc1F)N(Cc1cccs1)c1cc(F)ccc12 [CP# 21, 7-Fluoro-1,2-dihydro-5-[(2-thienyl)methyl]-3-oxo-N-(2-fluorophenyl)pyrido-[1,2-a]benzimidazole-4-carboxamide]	< 1	< 10
0.29	O=C1CCN2C(=C1C(=O)Nc1ccccc1F)N(Cc1c[nH]cn1)c1cc(F)ccc12 [CP# 12, 7-Fluoro-1,2-dihydro-5-[(4-imidazo)methyl]-3-oxo-N-(2-fluorophenyl)pyrido-[1,2-a]benzimidazole-4-carboxamide]	30	> 10
0.096	O=C1CCN2C(=C1C(=O)Nc1ccccc1F)N(CCc1ccsc1)c1cc(F)ccc12 [CP# 20, 7-Fluoro-1,2-dihydro-5-[2-(3-thienyl)ethyl]3-oxo-N-(2-fluorophenyl)pyrido[1,2-a]benzimidazole-4-carboxamide]	0.1	< 10
